In ChEMBL document CHEMBL1201862, “PubChem BioAssay data set” (2004):
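1) Cells in 96-well plates. 2) Compound, 48 h, 5 concentrations. 3) Linear interpolation between surrounding doses. 4) Unreached endpoint = highest concentration. At the GI50, growth is halved.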 Active and inactive are the calls of the source. Rule as the data show it: active = GI50 up to about 1.1 µM and inactive = higher.

How the values were obtained:
Assay in all cases: growth of human tumour cells (NCI), 48 h
SNB-78 = tested on: SNB-78
KM-20L2 = tested on: KM-20L2
DMS-273 = tested on: DMS-273
DLD-1 = tested on: DLD-1
DMS-114 = tested on: DMS-114
M19-MEL = tested on: M19-MEL
XF498 = tested on: XF498
HOP-18 = tested on: HOP-18
RXF 631 = tested on: RXF 631

Measured: GI50

CCOC(=O)c1ccc(NC(=O)SCCC(=O)O)cc1
inactive: SNB-78 > 100 µM | KM-20L2 > 100 µM | DMS-273 > 100 µM | DLD-1 > 100 µM | DMS-114 > 100 µM

NC1=NCCC1(c1ccccc1)c1ccccn1 (stereo unspecified)
inactive: SNB-78 > 100 µM | M19-MEL > 100 µM | KM-20L2 > 100 µM | DMS-273 > 100 µM | XF498 > 100 µM | HOP-18 > 100 µM | DMS-114 > 100 µM

O=c1c(Br)cc2nc3ccccc3sc-2c1Br
inactive: SNB-78 > 100 µM | M19-MEL 17.5 µM | KM-20L2 > 100 µM | DMS-273 > 100 µM | XF498 27.2 µM | RXF 631 > 100 µM | DLD-1 > 100 µM | DMS-114 17.9 µM

Cc1cccc(NC2=NC(=O)C(CC(=O)Nc3ccc(Cl)cc3C)S2)c1 (stereo unspecified)
inactive: M19-MEL > 100 µM | KM-20L2 > 100 µM | DMS-273 > 100 µM | RXF 631 > 100 µM | DLD-1 > 100 µM | HOP-18 > 100 µM | DMS-114 > 100 µM

CCC(O)CCCCCCCCCCCCCCC(=O)O (stereo unspecified)
inactive: SNB-78 > 100 µM | M19-MEL > 100 µM | DMS-273 > 100 µM | XF498 > 100 µM | RXF 631 78.3 µM | DLD-1 > 100 µM | HOP-18 > 100 µM | DMS-114 > 100 µM

CC1=C(c2cc(C(=O)Nc3ccc(Cl)cc3)nc(S)n2)Sc2ccccc2N1
inactive: SNB-78 > 100 µM | M19-MEL > 100 µM | KM-20L2 > 100 µM | DMS-273 > 100 µM | XF498 > 100 µM | RXF 631 > 100 µM | DLD-1 > 100 µM | HOP-18 > 100 µM | DMS-114 > 100 µM

O=C1c2ccccc2C2CCC1c1ccccc12 (stereo unspecified)
inactive: SNB-78 29.9 µM | M19-MEL 25.6 µM | KM-20L2 32.8 µM | DMS-273 27.4 µM | XF498 29.5 µM | DLD-1 33.5 µM | HOP-18 73.6 µM | DMS-114 19.4 µM

COc1ccc([C@@H]2C[C@@H]3C(=O)OC(=O)[C@@H]3c3c2c2ccccc2n3C)cc1
inactive: M19-MEL > 100 µM | DMS-273 > 100 µM | XF498 > 100 µM | RXF 631 > 100 µM | DLD-1 > 100 µM | DMS-114 > 100 µM

Nc1c(-c2ccc(Cl)cc2)[n+]([O-])c2ccccc2[n+]1[O-]
inactive: SNB-78 > 100 µM | M19-MEL > 100 µM | KM-20L2 > 100 µM | DMS-273 > 100 µM | XF498 42.7 µM | DLD-1 88.7 µM | HOP-18 20.7 µM | DMS-114 46.1 µM

Cc1ccc(/C=C/C(=O)CCN(C)C)cc1
inactive: SNB-78 28.6 µM | M19-MEL 19.7 µM | KM-20L2 18.3 µM | DMS-273 13 µM | XF498 14.2 µM | DLD-1 18.1 µM | HOP-18 20.7 µM | DMS-114 18.3 µM

COC(=O)C(C#N)=C1c2ccccc2Oc2ccccc21
inactive: SNB-78 28.6 µM | M19-MEL 60.1 µM | KM-20L2 91.2 µM | DMS-273 > 100 µM | XF498 > 100 µM | DLD-1 > 100 µM | DMS-114 32.7 µM

Cc1cc(NS(=O)(=O)c2ccc(NC(=O)c3cccc4c(Nc5ccc(S(=O)(=O)Nc6cc(C)on6)cc5)c5ccc(Cl)cc5nc34)cc2)no1
inactive: SNB-78 91.6 µM | M19-MEL 41.9 µM | KM-20L2 74.1 µM | DMS-273 85.1 µM | XF498 56.6 µM | DLD-1 63.2 µM | HOP-18 14.9 µM | DMS-114 38.9 µM

CCCCCCCCCCCCCC/C(C(=O)OC)=C(/O)C(=O)OCC
inactive: SNB-78 64.1 µM | M19-MEL 54.8 µM | DMS-273 94 µM | XF498 20.4 µM | RXF 631 33 µM | DLD-1 30.5 µM | HOP-18 27.6 µM | DMS-114 > 100 µM

CC(C)c1cccc(=O)c(O)c1 [HINOKITIOL]
inactive: SNB-78 48.3 µM | M19-MEL 13.3 µM | KM-20L2 4.27 µM | DMS-273 3.83 µM | XF498 4.24 µM | RXF 631 30.5 µM | DLD-1 5.31 µM | HOP-18 15.3 µM | DMS-114 3.72 µM
